Assay results from PMC9696794, “Synthesis and Antimicrobial Activity of Short Analogues of the Marine Antimicrobial Peptide Turgencin A: Effects of SAR Optimizations, Cys-Cys Cyclization and Lipopeptide Modifications” (International Journal of Molecular Sciences, 2022).
≈ marks a conversion by molar mass, not a printed value. Where a SMILES comes first, the peptide text is derived from it. Bridges are numbered along the chain shown (N, C = ends).

Columns and labels:
[1] = tested on: B. subtilis (Bs, ATCC 23857); experiment: microbe, parasite or virus in culture; format: cell-based, Bacillus subtilis; conditions: ATCC 23857, 24 h
Procedure, shortened: (§1)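 Cultures grown in Mueller–Hinton broth were adjusted by OD600 to 2.5–3 × 10^4 CFU/mL and mixed with two-fold peptide dilutions from 256 to 1 µg/mL. Plates were incubated at 35 °C with OD595 monitored every hour for 24 h.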

[2] = tested on: C. glutamicum (Cg, ATCC 13032); experiment: microbe, parasite or virus in culture; format: cell-based, Corynebacterium glutamicum; conditions: ATCC 13032, 24 h
Procedure, shortened: as §1

[3] = tested on: S. aureus (Sa, ATCC 9144); experiment: microbe, parasite or virus in culture; format: cell-based, Staphylococcus aureus; conditions: ATCC 9144, 24 h
Procedure, shortened: as §1

[4] = tested on: S. epidermidis RP62A (Se, ATCC 35984); experiment: microbe, parasite or virus in culture; format: cell-based, Staphylococcus epidermidis; conditions: ATCC 35984, 24 h
Procedure, shortened: as §1

E. coli (Ec, ATCC 25922) = experiment: microbe, parasite or virus in culture; format: cell-based, Escherichia coli; conditions: ATCC 25922, 24 h
Procedure, shortened: as §1

[5] = tested on: P. aeruginosa (Pa, ATCC 27853); experiment: microbe, parasite or virus in culture; format: cell-based, Pseudomonas aeruginosa; conditions: ATCC 27853, 24 h
Procedure, shortened: as §1

all bacterial strains = experiment: Antibacterial MIC assay, all bacterial strains together (range or geometric mean); format: cell-based; conditions: for GM (geometric mean of the MIC values against all bacterial strains): Table 1, six bacterial strains; for GM of MIC Tot. bact.: Table S3, all bacterial test strains, MIC >256 set to 256
Procedure, shortened: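 Broth microdilution in Mueller–Hinton broth against B. subtilis, C. glutamicum, S. aureus, S. epidermidis RP62A, E. coli and P. aeruginosa; inoculum 2.5–3 × 10^4 CFU/mL, 35 °C, OD595 read hourly for 24 h. MIC: lowest peptide concentration giving OD below 10% of growth control; geometric mean across strains, triplicate.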

A. pullulans (Ap) = experiment: microbe, parasite or virus in culture; format: cell-based, Aurobasidium pollulans; conditions: 48 h
Procedure, shortened: (§2)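 Overnight cultures in potato dextrose broth with 2% glucose at 25–30 °C were diluted to approx. 4 × 10^5 spores/mL and mixed 1:1 with two-fold peptide dilutions plated at 256 to 1 µg/mL. After 48 h at room temperature, OD600 was read. MIC was the lowest concentration giving OD below 10% of the growth control, in triplicate.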

[6] = tested on: C. albicans (Ca, ATCC 10231); experiment: microbe, parasite or virus in culture; format: cell-based, Candida albicans; conditions: ATCC 10231, 48 h
Procedure, shortened: as §2

Rhodotorula sp. (Rh) = experiment: microbe, parasite or virus in culture; format: cell-based; conditions: 48 h
Procedure, shortened: as §2

[7] = tested on: human red blood cells (RBC); experiment: Haemolytic activity assay; format: cell-based; conditions: for Selectivity index (SI) G- / Selectivity index (SI) G+ / Selectivity index (SI) Fungi: Table S3, highest tested concentration used where EC50 above it; for Selectivity index (SI) G-: EC50/GM of Gram-negative strains; for Selectivity index (SI) G+: EC50/GM of Gram-positive strains; for Selectivity index (SI) Fungi: EC50/GM of fungi; for SI (selectivity index = EC50/GM): haemolytic EC50 over GM of MIC against all bacterial strains, Table 1; for RBC Tox. (EC50), haemolytic activity: human RBC, 1 h, 37 °C, concentration giving 50% haemolysis
Procedure, shortened: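 Washed human erythrocytes (1% hematocrit final) incubated 1 h at 37 °C with agitation with lipopeptides at 500–3.9 μM in PBS (≤1% DMSO), duplicates. Haemoglobin release read at 545 nm relative to 0.1% Triton X-100; EC50 is 50% haemolysis, averaged from three experiments.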

[8] = tested on: E. coli MC4100 (wild type, WT); experiment: microbe, parasite or virus in culture; conditions: wild type
Procedure, shortened: (§3)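 Broth microdilution in Mueller–Hinton medium, 2.5–3 × 10^4 CFU/mL inoculum, two-fold peptide dilutions from 256 to 1 µg/mL, 35 °C with OD595 read hourly for 24 h. MIC is the lowest concentration giving OD below 10% of the untreated growth control; run in triplicate.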

[9] = tested on: E. coli NR698 (outer membrane permeable mutant, imp4213); experiment: microbe, parasite or virus in culture; conditions: MC4100 NR698 imp4213, deficient outer membrane
Procedure, shortened: as §3

[10] = tested on: Gram-positive bacterial strains; conditions: for GM of MIC G+: Table S3, MIC >256 set to 256
Procedure, shortened: as §1

[11] = tested on: Gram-negative bacterial strains (E. coli and P. aeruginosa); experiment: Antibacterial MIC assay, Gram-negative strains together (range or geometric mean); format: cell-based; conditions: Table S3; MIC >256 set to 256
Procedure, shortened: as §1

[12] = tested on: fungi (A. pullulans, C. albicans, Rhodotorula sp.); experiment: Antifungal MIC assay, all fungi together (range or geometric mean); format: cell-based; conditions: Table S3; MIC >128 set to 128
Procedure, shortened: as §2

SMILES	Antimicrobial Activity (MIC) Gram + Bs [1] [µg/mL]	Antimicrobial Activity (MIC) Gram + Cg [2] [µg/mL]	Antimicrobial Activity (MIC) Gram + Sa [3] [µg/mL]	Antimicrobial Activity (MIC) Gram + Se [4] [µg/mL]	Antimicrobial Activity (MIC) Gram − Ec (E. coli (Ec, ATCC 25922)) [µg/mL]	Antimicrobial Activity (MIC) Gram − Pa [5] [µg/mL]	GM (geometric mean of the MIC values against all bacterial strains) (all bacterial strains) [µg/mL]	GM of MIC Tot. bact. (all bacterial strains) [µg/mL]	Antimicrobial Activity (MIC) Fungi Ap (A. pullulans (Ap)) [µg/mL]	Antimicrobial Activity (MIC) Fungi Ca [6] [µg/mL]	Antimicrobial Activity (MIC) Fungi Rh (Rhodotorula sp. (Rh)) [µg/mL]	Selectivity index (SI) G- [7]	Selectivity index (SI) G+ [7]	Selectivity index (SI) Fungi [7]	SI (selectivity index = EC50/GM) [7]	MIC E. coli MC4100 (WT) [8] [µg/mL]	MIC E. coli NR698 (mutant) [9] [µg/mL]	GM of MIC G+ [10] [µg/mL]	GM of MIC G- [11] [µg/mL]	GM of MIC Fungi [12] [µg/mL]	other results
CC(C)C[C@H](NC(=O)[C@H](CCCCN)NC(=O)[C@@H]1CSSC[C@H](N)C(=O)NCC(=O)N[C@@H](CCCCN)C(=O)N[C@@H](CCCCN)C(=O)N[C@@H](Cc2c[nH]c3ccccc23)C(=O)NCC(=O)N[C@@H](Cc2c[nH]c3ccccc23)C(=O)N[C@@H](Cc2c[nH]c3ccccc23)C(=O)N[C@@H](CCCCN)C(=O)N1)C(N)=O [cTurg-3] (H-CGKKWGWWKCKL-NH2; disulfide 1-10; N-terminus assumed)	4	4	32	16	32	128	18	18	32	32	32	13	89	27	47	16 (≈ 10.5 µM)	8 (≈ 5.26 µM)	10	64	32	RBC Tox. (EC50), haemolytic activity [7]: 849 µg/mL
CC(C)C[C@H](NC(=O)[C@H](CCCCN)NC(=O)[C@@H]1CSSC[C@H](N)C(=O)NCC(=O)N[C@@H](CCCCN)C(=O)N[C@@H](CCCCN)C(=O)N2CCC[C@H]2C(=O)N[C@@H](Cc2c[nH]c3ccccc23)C(=O)N[C@@H](Cc2c[nH]c3ccccc23)C(=O)N[C@@H](Cc2c[nH]c3ccccc23)C(=O)N[C@@H](CCCCN)C(=O)N1)C(N)=O [cTurg-4] (H-CGKKPWWWKCKL-NH2; disulfide 1-10; N-terminus assumed)	8	4	64	32	64	256	32	32	32	64	32	> 8	> 67	> 26	>33	16 (≈ 10.3 µM)	8 (≈ 5.13 µM)	16	128	40	–
CC(C)C[C@H](NC(=O)[C@H](CCCNC(=N)N)NC(=O)[C@@H]1CSSC[C@H](N)C(=O)NCC(=O)N[C@@H](CCCNC(=N)N)C(=O)N[C@@H](CCCNC(=N)N)C(=O)N[C@@H](Cc2c[nH]c3ccccc23)C(=O)N[C@@H](Cc2c[nH]c3ccccc23)C(=O)NCC(=O)N[C@@H](Cc2c[nH]c3ccccc23)C(=O)N[C@@H](CCCNC(=N)N)C(=O)N1)C(N)=O [cTurg-5] (H-CGRRWWGWRCRL-NH2; disulfide 1-10; N-terminus assumed)	8	4	16	8	8	16	9	9	32	32	32	> 97	> 138	> 34	>123	8 (≈ 4.9 µM)	8 (≈ 4.9 µM)	8	11	32	RBC Tox. (EC50), haemolytic activity [7]: >1101 µg/mL
CC(C)C[C@H](NC(=O)[C@H](CCCNC(=N)N)NC(=O)[C@@H]1CSSC[C@H](N)C(=O)NCC(=O)N[C@@H](CCCNC(=N)N)C(=O)N[C@@H](CCCNC(=N)N)C(=O)N[C@@H](Cc2c[nH]c3ccccc23)C(=O)NCC(=O)N[C@@H](Cc2c[nH]c3ccccc23)C(=O)N[C@@H](Cc2c[nH]c3ccccc23)C(=O)N[C@@H](CCCNC(=N)N)C(=O)N1)C(N)=O [cTurg-6] (H-CGRRWGWWRCRL-NH2; disulfide 1-10; N-terminus assumed)	4	4	16	8	8	16	8	8	32	32	32	> 97	> 164	> 34	–	8 (≈ 4.9 µM)	8 (≈ 4.9 µM)	7	11	32	RBC Tox. (EC50), haemolytic activity [7]: > 1045 µg/mL; MIC against the Gram-positive bacterial strains ([10]; 2 h): 4 to 16 µg/mL
